One assay relates to MCF-7 cells. Put plainly: Apoptosis nuclear morphology, MCF-7 cells. The class given is cell-based. To be noted: 30 hours. On the procedure: (§1) Cells were plated into 96-well plates at densities of 3×10^3 to 1×10^4 cells/well. The following day apoptotic inducers were added at indicated concentrations and cells were incubated for indicated time periods (usually 16-30 hours). The next day medium was removed and cells were stained with 5 μg/ml Hoechst (Molecular Probes, Inc.) in fresh medium and incubated for 30 minutes at 37° C. Cells were washed in Hank's Balanced Salt Solution (HBSS) and fixed with 3.7% formaldehyde in HBSS at room temperature. Cells were washed 2×with HBSS at room temperature and the plate was sealed.
(§2) Quantitation of changes in nuclear morphology upon induction of apoptosis was accomplished by (1) measuring the effective size of the nuclear region; and (2) measuring the degree of convolution of the perimeter.

The test system of assay [1] is microtubule arrays (tubulin-GFP chimera). Put plainly: Microtubule disruption assay, LLCPK cells with tubulin-GFP biosensor. In kind it is cell-based, pig. To be noted: 10-500 nM, 12 hour time point. On the procedure: For microtubule disruption assays, LLCPK cells stably transfected with a tubulin-GFP biosensor plasmid were plated on 96 well cell culture dishes at 50-60% confluence and cultured overnight at 37° C., 5% CO2. […] The cells were then observed with the cell screening system described above, at a 12 hour time point.

For assay [2], the system named is BHK cells. The assay is described as follows: Apoptosis mitochondrial mass/potential, BHK cells. The class given is cell-based. To be noted: 30 hours. On the procedure:
(§3) Cells were plated into 96-well plates at densities of 3×10^3 to 1×10^4 cells/well. The following day apoptotic inducers were added at the indicated concentrations and cells were incubated for the indicated time periods (usually 16-30 hours). Cells were stained with 5 μg/ml Hoechst (Molecular Probes, Inc.) and 750 nM MITOTRACKER™ Red (CMXRos, Molecular Probes, Inc.) in fresh medium and incubated for 30 minutes at 37° C. Cells were washed in HBSS and fixed with 3.7% formaldehyde in HBSS at room temperature. Plates were washed with HBSS and permeabilized with 0.5% v/v TRITON™ X-100 in HBSS at room temperature. Cells were washed 2× with HBSS at room temperature and the plate was sealed. For dual labeling of mitochondria, cells were treated with 200 nM MITOTRACKER™ Green and 200 nM MITOTRACKER™ Red for 0.5 hours before fixation.
(§4) The mitochondrial membrane potential is measured by labeling mitochondria with both MITOTRACKER™ Green FM and MITOTRACKER™ Red (Molecular Probes, mc). MITOTRACKER™ Red labeling is proportional to both mass and membrane potential. MITOTRACKER™ Green FM labeling is proportional to mass. The ratio of MITOTRACKER™ Red signal to the MITOTRACKER™ Green FM signal provides a measure of mitochondrial membrane potential (Poot and Pierce, 1999). This ratio normalizes the […]. […]

A further assay relates to L-929 cells. Put plainly: High-content screen of paclitaxel-induced apoptosis, L-929 cells. In kind it is cell-based, mouse. On the procedure:
(§5) The cells chosen for this study were mouse connective tissue fibroblasts (L-929; ATCC CCL-1) and a highly invasive glioblastoma cell line (SNB-19; ATCC CRL-2219) (Welch et al., In Vitro Cell. Dev. Bid. 31:610, 1995). The day before treatment with an apoptosis inducing drug, 3500 cells were placed into each well of a 96-well plate and incubated overnight at 37° C. in a humidified 5% CO2 atmosphere. The following day, the culture medium was removed from each well and replaced with fresh medium containing various concentrations of paclitaxel (0-50 μM) from a 20 mM stock made in DMSO. The maximal concentration of DMSO used in these experiments was 0.25%. The cells were then incubated for 26 h as above. At the end of the paclitaxel treatment period, each well received fresh medium containing 750 nM MITOTRACKER™ Red (Molecular Probes; Eugene, Oreg.) and 3 μg/ml Hoechst 33342 DNA-binding dye (Molecular Probes) and was incubated as above for 20 mm. Each well on the plate was then washed with HBSS and fixed with 3.7% formaldehyde in HBSS for 15 mm at room temperature. The formaldehyde was washed out with HBSS and the cells were permeabilized for 90 s with 0.5% (v/v) Triton X-100, washed with HBSS, incubated with 2 U ml^−1 BODIPY™ FL phallacidin (Molecular Probes) for 30 mm, and washed with HBSS. The wells on the plate were then filled with 200 μl HBSS, sealed, and the plate stored at 4° C. if necessary. The fluorescence signals from plates stored this way were stable for at least two weeks after preparation. As in the nuclear translocation assay, fluorescence reagents can be designed to convert this assay into a live cell high-content screen.
The fluorescence intensity of intracellular MITOTRACKER™ Red, Hoechst 33342, and BODIPY™ FL phallacidin was measured with the cell screening system as described supra. Morphometric data from each pair of images obtained from each well was also obtained to detect each object in the image field (e.g., cells and nuclei), and to calculate its size, shape, and integrated intensity.
A total of 50-250 cells were measured per image field. For each field of cells, the following calculations were performed: (1) The average nuclear area (μm^2) was calculated by dividing the total nuclear area in a field by the number of nuclei detected. (2) The average nuclear perimeter (μm) was calculated by dividing the sum of the perimeters of all nuclei in a field by the number of nuclei detected in that field. Highly convoluted apoptotic nuclei had the largest nuclear perimeter values. (3) The average nuclear brightness was calculated by dividing the integrated intensity of the entire field of nuclei by the number of nuclei in that field. An increase in nuclear brightness was correlated with increased DNA content. (4) The average cellular brightness was calculated by dividing the integrated intensity of an entire field of cells stained with MITOTRACKER™ dye by the number of nuclei in that field. Because the amount of MITOTRACKER™ dye that accumulates within the mitochondria is proportional to the mitochondrial potential, an increase in the average cell brightness is consistent with an increase in mitochondrial potential. (5) The average cellular brightness was also calculated by dividing the integrated intensity of an entire field of cells stained with BODIPY™ FL phallacidin dye by the number of nuclei in that field. […]

In the next assay the test system is L929 cells. The assay is described as follows: Apoptosis mitochondrial mass/potential, L929 cells. Particulars: 30 hours. The class given is cell-based, mouse. Here is the method: as §3, §4
The test system of a further assay is SNB-19 cells. The assay is described as follows: High-content screen of paclitaxel-induced apoptosis, SNB-19 cells. The class given is cell-based. To be noted: 26 h. On the procedure: as §5, with “The formaldehyde was washed out with HBSS and the cells were permeabilized for 90 s with 0.5% (v/v) Triton X-100, washed with HBSS, incubated with 2 U ml^−1 BODIPY™ FL phallacidin (Molecular Probes) for 30 mm, and washed with HBSS. The wells on the plate were then filled with 200 μl HBSS, sealed, and the plate stored at 4° C. if necessary.” left out
The fluorescence intensity of intracellular MITOTRACKER™ Red, Hoechst 33342, and BODIPY™ FL phallacidin was measured with the cell screening system as described supra. […]
A total of 50-250 cells were measured per image field. For each field of cells, the following calculations were performed: (1) The average nuclear area (μm^2) was calculated by dividing the total nuclear area in a field by the number of nuclei detected. (2) The average nuclear perimeter (μm) was calculated by dividing the sum of the perimeters of all nuclei in a field by the number of nuclei detected in that field. […] (3) The average nuclear brightness was calculated by dividing the integrated intensity of the entire field of nuclei by the number of nuclei in that field. […]

The test system of assay [3] is BHK cells. Put plainly: Apoptosis nuclear morphology, BHK cells. The class given is cell-based. To be noted: 30 hours. On the procedure:
as §1, §2

Entries after “also recorded” stand apart in the source; their conditions may differ.

In the case of `CC(=O)O[C@H]1C(=O)[C@@]2(C)[C@H]([C@H](OC(=O)c3ccccc3)[C@]3(O)C[C@H](OC(=O)[C@H](O)[C@@H](NC(=O)c4ccccc4)c4ccccc4)C(C)=C1C3(C)C)[C@]1(OC(C)=O)CO[C@@H]1C[C@@H]2O` [paclitaxel], the entries for the “change in nuclear morphology” value with MCF-7 cells and with BHK cells [3] were “nuclear fragmentation” and “consistent increase in nuclear fragmentation with increasing concentrations; also recorded: a more classical response”, respectively. Besides, the “Response of microtubule arrays” value in assay [1] was “Stabilization”. Besides, the “mitochondrial changes (mass / membrane potential)” value in the assay with BHK cells [2] and in the assay on L929 cells was “consistent increases in mitochondrial mass” each time. In addition, the “sensitivity, each parameter measured” value with L-929 cells (L-929 cells compared with SNB-19 cells) was “less sensitive to low concentrations of paclitaxel than were SNB-19 cells”. The “concentration of maximal response in many parameters” value with L-929 cells (L-929 cells, 26 h) worked out at 5 µM. Moreover, the mitochondrial potential result in the assay on L-929 cells (L-929 cells, any of the concentrations tested (0-50 μM), 26 h) is “did not show a sharp decrease in mitochondrial potential”; with SNB-19 cells (10 nM paclitaxel) it was “minimal at the same concentration of paclitaxel”. In the assay on L-929 cells (L-929 cells, increasing amounts, 26 h), the nuclear morphology result is “caused nuclei to enlarge and fragment”. Further, in the assay with L-929 cells (L-929 vs SNB-19 cells), the “dose of maximal response relative to SNB-19 cells” value came to 500 fold. Also, the “concentration at which area, brightness, and fragmentation of the nucleus and actin polymerization values reached a maximum value” in the assay on SNB-19 cells turned out to be 10 nM. For the same molecule, the “all the parameters measured at increasing concentrations” value with SNB-19 cells (>10 nM paclitaxel) is recorded as “approached control levels”.

The values above are taken from patent US6875578B2, “System for cell-based screening” (priority 1997, dated 2005).
